Experiments:
[1] = test system: LPS/D-Gal administration; test: mortality after LPS/D-Gal administration; assay type: in vivo; settings: i.p., TTL3 administration 45 minutes prior to LPS
[2] = test system: MM cell lines (MM.1S, MM.1R, OCI-MyS, OPM-1, Dox-40); test: viability of MM cell lines (MM.1S, MM.1R, OCI-MyS, OPM-1, Dox-40); assay type: cell-based; settings: 48 h; all cell lines; read-out: IC50 range, decrease in cell viability
Description: Transcription factor NF-KB is linked to growth and survival of multiple myeloma (MM) cells and blockade of NF-KB activity. NPI-1387 (Formula IIB-b1; compound 24 shown above under scheme 4), a potent small-molecule inhibitor of upstream activator of NF-KB, was administered to MM cells and its effect on the viability of MM cells, including those resistant to conventional agents dexamethasone or doxorubicin is shown.

[3] = test system: NF-κB DNA binding activity; test: NF-κB DNA binding activity, EMSA, PC-3; assay type: cell-based; settings: TNF-α
[4] = test system: NF-κB p65 subunit nuclear translocation; assay type: cell-based; settings: LPS-stimulated RAW264.7; 5, 10 and 20 μM
Description: Cells were pretreated with NPI-1387 (compound 24 under scheme 4 above) at 5, 10 and 20 μM for 1 hr, and then stimulated with 50 ng/ml LPS for 30 min. Coverslips were transferred to clean plates, washed twice in Dulbecco's phosphate buffered saline (DPBS), fixed in 10% formaldehyde for 10 min, and permeabilized with 0.2% Triton X-100 for additional 10 min. Blocking medium (DPBS, 2% BSA, 0.1% Triton X-100) was added for 2 h, and removed by aspiration. Polyclonal goat anti-p65 antibody (Santa Cruz Biotechnology) was added at a 1:1000 dilution for 1 hr. The wells were washed 3 times with DPBS containing 0.1% Triton X-100, and […] of Alexa-488-conjugated anti-goat antibody (1:1000 dilution, Molecular Probes) were added for 30 min. Wells were washed again, and the coverslips were mounted face-down on microscope slides using Vectashield (Vector) mounting medium. Slides were observed under an Olympus fluorescent microscope, images acquired using a Magnafire digital camera, and processed using Adobe Photoshop.

[5] = test system: cells obtained from Bortezomib-refractory MM patient; test: viability of purified patient MM cells; assay type: cell-based; settings: in vitro
From the text: Besides nuclear condensation, NF-KB inhibitor triggered proteolytic cleavage of poly (ADP ribose) polymerase (PARP), a hallmark of apoptosis.

| Compound | Mortality 24 hours [1] | Mortality 48 hours [1] | IC50 [2] | NF-κB DNA binding activity [3] | nuclear translocation of NF-κB (p65) / activated IRAK1 [4] | viability of cells from Bortezomib-refractory MM patient [5] |
| --- | --- | --- | --- | --- | --- | --- |
| C=C[C@@]1(C)CCC=C2[C@H]1CC[C@@H]1[C@](C)(C(=O)OC)CCC[C@@]21C [TTL3] | 2/10 | 2/10 | – | – | – | – |
| C=CC(=O)C1(C)CCCC2(C)C3=CCC(C)(C=C)C[C@@H]3CC[C@H]12 (stereo in doubt) [NPI-1387, 1-[(1S,4aS,7R)-1,4a,7-Trimethyl-7-vinyl-1,2,3,4,4a,6,7,8,8a,9,10,10a-dodecahydro-1-phenanthrenyl]-2-propen-1-one] | – | – | 25 to 40 µM | inhibits the DNA binding activity of NF-κB in a dose-dependent manner | inhibits the NF-κB p65 subunit nuclear translocation in a dose-dependent manner | decreases the viability |

Source: patent US7893299B2, “Interleukin-1 and tumor necrosis factor-αmodulators; syntheses of such modulators and methods of using such modulators” (Nereus Pharmaceuticals, Inc., priority 2005, dated 2011)
